# Assay results as given in the Kinase Knowledgebase extract (Sharma et al. 2016).
# Several values for one entry are separate records, joined by “and”; a condition that tells them apart may be missing. Equal values may be shown once.
# Target: MAPK14 (human) (UniProt Q16539)
# Experiment: Inhibition of LPS Stimulated TNF Production by U937 Cells
# Details: not given
# Chain of MAPK14 (human) (Q16539 whole entry, looked up): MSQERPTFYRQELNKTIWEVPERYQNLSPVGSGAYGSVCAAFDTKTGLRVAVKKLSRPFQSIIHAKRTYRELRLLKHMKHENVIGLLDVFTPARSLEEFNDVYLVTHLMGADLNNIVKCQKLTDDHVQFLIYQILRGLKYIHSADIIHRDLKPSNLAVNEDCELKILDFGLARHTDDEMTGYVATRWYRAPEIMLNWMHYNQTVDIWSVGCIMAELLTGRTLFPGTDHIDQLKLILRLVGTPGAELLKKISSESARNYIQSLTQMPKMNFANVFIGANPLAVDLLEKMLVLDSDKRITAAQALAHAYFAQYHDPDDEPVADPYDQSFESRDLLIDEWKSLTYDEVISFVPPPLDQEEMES
row,Structure (SMILES),IC50
1,CCOC(=O)N[C@H](C)c1[nH]nc(-c2ccc(F)cc2)c1-c1ccncc1,0.74 µM
2,COC(=O)CNc1n[nH]c(-c2ccc(F)cc2)c1-c1ccncc1,> 10 µM
3,Fc1ccc(-c2n[nH]cc2-c2ccnc(-c3c[nH]nc3-c3ccc(F)cc3)c2)cc1,0.602 µM
4,C[C@@H](NC(=O)NCCc1[nH]nc(-c2ccc(F)cc2)c1-c1ccncc1)c1ccccc1,5 µM
5,CN(C)CCCNc1n[nH]c(-c2ccc(F)cc2)c1-c1ccncc1,0.27 µM
6,OCCn1ncc(-c2ccnc(NCc3ccc(F)cc3)c2)c1-c1ccc(F)cc1,0.8 µM and 6.02 µM
7,O=S(=O)(NCc1[nH]nc(-c2ccc(F)cc2)c1-c1ccncc1)c1ccc(F)cc1F,2.17 µM
8,Cc1ccc(-c2[nH]nc(C)c2-c2ccncc2)c(C)c1,1.05 µM
9,O=C(NCc1[nH]nc(-c2ccc(F)cc2)c1-c1ccncc1)c1ccc(F)c(F)c1F,3.27 µM
10,Cc1onc(-c2c(F)cccc2Cl)c1C(=O)NCc1[nH]nc(-c2ccc(F)cc2)c1-c1ccncc1,> 1 µM
11,OCCn1cc(-c2ccnc(F)c2)c(-c2ccc(F)cc2)n1,2.67 µM
12,CN(C)CCNc1cc(-c2c[nH]nc2-c2ccc(F)cc2)ccn1,0.259 µM
13,O=S(=O)(NCc1[nH]nc(-c2ccc(F)cc2)c1-c1ccncc1)c1cccc2ccccc12,> 1 µM
14,CC(=O)OC(C)(C)C(=O)N[C@@H](C)c1[nH]nc(-c2ccc(F)cc2)c1-c1ccncc1,0.87 µM
15,C[C@@H](NS(=O)(=O)c1ccc(F)cc1)c1[nH]nc(-c2ccc(F)cc2)c1-c1ccncc1,0.9 µM
16,CN(C(=O)N[C@@H](Cc1ccccc1)c1[nH]nc(-c2ccc(F)cc2)c1-c1ccncc1)c1ccccc1,< 1 µM
17,Fc1ccc(-c2[nH]nc(NCCCN3CCOCC3)c2-c2ccncc2)cc1,0.09 µM
18,O=[N+]([O-])c1cccc(S(=O)(=O)NCc2[nH]nc(-c3ccc(F)cc3)c2-c2ccncc2)c1,3.92 µM

row,Structure (SMILES),IC50
1,Cc1ccc(C(=O)N[C@H](Cc2ccccc2)c2[nH]nc(-c3ccc(F)cc3)c2-c2ccncc2)cc1,> 1 µM
2,COc1ccc(S(=O)(=O)NCc2[nH]nc(-c3ccc(F)cc3)c2-c2ccncc2)cc1,1.78 µM
3,CCCNC(=O)N[C@@H](C)c1[nH]nc(-c2ccc(F)cc2)c1-c1ccncc1,38 µM
4,Cc1cnccc1-c1c[nH]nc1-c1ccc(F)cc1,1.21 µM
5,C#CCn1ncc(-c2ccncc2)c1-c1ccc(F)cc1,> 10 µM
6,CC(=O)NCc1[nH]nc(-c2ccc(F)cc2)c1-c1ccncc1,0.19 µM
7,Cc1n[nH]c(-c2ccc(N(C)C)cc2)c1-c1ccncc1,0.099 µM
8,NS(=O)(=O)c1ccc(CNC(=O)NCCCc2[nH]nc(-c3ccc(F)cc3)c2-c2ccncc2)cc1,> 1 µM
9,Cc1ccc(S(=O)(=O)NCc2[nH]nc(-c3ccc(F)cc3)c2-c2ccncc2)cc1,1.29 µM
10,CNC(=O)N[C@H](Cc1ccccc1)c1[nH]nc(-c2ccc(F)cc2)c1-c1ccncc1,> 1 µM
11,COC(=O)c1ccccc1S(=O)(=O)NCc1[nH]nc(-c2ccc(F)cc2)c1-c1ccncc1,4.85 µM
12,C[C@H](NC(=O)N1CCCC1)c1[nH]nc(-c2ccc(F)cc2)c1-c1ccncc1,2.17 µM
13,O=C(N[C@H](Cc1ccccc1)c1[nH]nc(-c2ccc(F)cc2)c1-c1ccncc1)c1ccccc1C(F)(F)F,> 1 µM
14,COC(=O)CCC(=O)NCc1[nH]nc(-c2ccc(F)cc2)c1-c1ccncc1,10 µM
15,Cc1cccc(-c2n[nH]cc2-c2ccnc(C)c2)c1,0.301 µM
16,O=C(NCc1[nH]nc(-c2ccc(F)cc2)c1-c1ccncc1)c1cccs1,> 1 µM
17,CC(C)S(=O)(=O)NCc1[nH]nc(-c2ccc(F)cc2)c1-c1ccncc1,5 µM

# Same assay, conditions: concentration not given here
row,Structure (SMILES),inhibition [%]
1,C[C@H](NS(=O)(=O)c1ccc(C(F)(F)F)cc1)c1[nH]nc(-c2ccc(F)cc2)c1-c1ccncc1,86
2,C[C@@H](NC(=O)c1ccc(C(F)(F)F)cc1)c1[nH]nc(-c2ccc(F)cc2)c1-c1ccncc1,63
3,O=S(=O)(NCc1[nH]nc(-c2ccc(F)cc2)c1-c1ccncc1)c1cccc(Br)c1,90
4,C[C@@H](NS(=O)(=O)c1ccccc1C#N)c1[nH]nc(-c2ccc(F)cc2)c1-c1ccncc1,81
5,O=C(NCc1[nH]nc(-c2ccc(F)cc2)c1-c1ccncc1)C1CCCC1,13
6,C[C@@H](NC(=O)NCCc1[nH]nc(-c2ccc(F)cc2)c1-c1ccncc1)c1ccccc1,25
7,CCS(=O)(=O)N[C@H](C)c1[nH]nc(-c2ccc(F)cc2)c1-c1ccncc1,48
8,COc1ccc(NC(=O)N[C@@H](C)c2[nH]nc(-c3ccc(F)cc3)c2-c2ccncc2)c(OC)c1,21
9,Cc1ccccc1C(=O)N[C@@H](C)c1[nH]nc(-c2ccc(F)cc2)c1-c1ccncc1,34
10,C[C@H](NS(=O)(=O)Cc1ccccc1[N+](=O)[O-])c1[nH]nc(-c2ccc(F)cc2)c1-c1ccncc1,88
11,C[C@H](NS(=O)(=O)c1ccc(S(=O)(=O)c2ccccc2)s1)c1[nH]nc(-c2ccc(F)cc2)c1-c1ccncc1,72
12,N#Cc1cccc(C(=O)NCCc2[nH]nc(-c3ccc(F)cc3)c2-c2ccncc2)c1,7
13,C[C@H](NS(=O)(=O)c1ccc(Cl)c(Cl)c1)c1[nH]nc(-c2ccc(F)cc2)c1-c1ccncc1,90
14,NC(=O)N[C@@H](Cc1ccccc1)c1[nH]nc(-c2ccc(F)cc2)c1-c1ccncc1,17
15,C[C@@H](NS(=O)(=O)c1cccc(C(F)(F)F)c1)c1[nH]nc(-c2ccc(F)cc2)c1-c1ccncc1,97
16,Cc1ccc(C)c(S(=O)(=O)N[C@@H](C)c2[nH]nc(-c3ccc(F)cc3)c2-c2ccncc2)c1,80
17,Cc1cccc(Cl)c1S(=O)(=O)N[C@H](C)c1[nH]nc(-c2ccc(F)cc2)c1-c1ccncc1,77
18,CCCCCCCCS(=O)(=O)NCc1[nH]nc(-c2ccc(F)cc2)c1-c1ccncc1,12
19,CNC(=O)CC[C@H](NC(=O)Nc1c(C)cccc1C)c1[nH]nc(-c2ccc(F)cc2)c1-c1ccncc1,9
20,COc1ccc(CC(=O)N[C@@H](C)c2[nH]nc(-c3ccc(F)cc3)c2-c2ccncc2)cc1OC,28

row,Structure (SMILES),inhibition [%]
1,C[C@@H](NC(=O)N(C)C)c1[nH]nc(-c2ccc(F)cc2)c1-c1ccncc1,27
2,O=C(NCc1ccc(S(=O)(=O)NCc2[nH]nc(-c3ccc(F)cc3)c2-c2ccncc2)s1)c1ccccc1,68
3,CC(C)c1cc(C(C)C)c(C(=O)N[C@@H](C)c2[nH]nc(-c3ccc(F)cc3)c2-c2ccncc2)c(C(C)C)c1,42
4,O=C(NCc1[nH]nc(-c2ccc(F)cc2)c1-c1ccncc1)c1c(Cl)cc(Cl)cc1Cl,100
5,NC(=O)NCc1[nH]nc(-c2ccc(F)cc2)c1-c1ccncc1,50
6,COc1ccc(Br)cc1S(=O)(=O)N1CCC(c2[nH]nc(-c3ccc(F)cc3)c2-c2ccncc2)CC1,36
7,CCN(CC)C(=O)N[C@H](C)c1[nH]nc(-c2ccc(F)cc2)c1-c1ccncc1,49
8,COCC(=O)N[C@H](C)c1[nH]nc(-c2ccc(F)cc2)c1-c1ccncc1,46
9,O=C(NCc1[nH]nc(-c2ccc(F)cc2)c1-c1ccncc1)c1ccccn1,2
10,C[C@H](NS(=O)(=O)c1cccc(C(F)(F)F)c1)c1[nH]nc(-c2ccc(F)cc2)c1-c1ccncc1,83
11,CC(=O)O[C@@H](C)C(=O)N[C@H](C)c1[nH]nc(-c2ccc(F)cc2)c1-c1ccncc1,27
12,C[C@@H](NS(=O)(=O)c1ccc(Cl)cc1)c1[nH]nc(-c2ccc(F)cc2)c1-c1ccncc1,92
13,CCOC(=O)c1ccc(NC(=O)NCc2[nH]nc(-c3ccc(F)cc3)c2-c2ccncc2)cc1,13
14,CCCNC(=O)NCc1[nH]nc(-c2ccc(F)cc2)c1-c1ccncc1,39
15,CN(C(=O)NCCc1[nH]nc(-c2ccc(F)cc2)c1-c1ccncc1)c1ccccc1,41
16,O=S(=O)(NCc1[nH]nc(-c2ccc(F)cc2)c1-c1ccncc1)c1cccc2cnccc12,24
17,C[C@@H](NS(=O)(=O)c1ccc(Cl)s1)c1[nH]nc(-c2ccc(F)cc2)c1-c1ccncc1,95
18,O=C(NCc1[nH]nc(-c2ccc(F)cc2)c1-c1ccncc1)c1ccncc1,3
19,O=C(NCc1[nH]nc(-c2ccc(F)cc2)c1-c1ccncc1)c1cccc(Br)c1,24
20,O=C(NCc1[nH]nc(-c2ccc(F)cc2)c1-c1ccncc1)c1ccc(C(F)(F)F)cc1,24

row,Structure (SMILES),inhibition [%]
1,C[C@@H](NS(=O)(=O)c1cccc2cccnc12)c1[nH]nc(-c2ccc(F)cc2)c1-c1ccncc1,71
2,C[C@@H](NC(=O)c1c(F)cc(F)cc1F)c1[nH]nc(-c2ccc(F)cc2)c1-c1ccncc1,75
3,C[C@@H](NC(=O)c1cccnc1)c1[nH]nc(-c2ccc(F)cc2)c1-c1ccncc1,36
4,Cc1ccccc1C(=O)NCc1[nH]nc(-c2ccc(F)cc2)c1-c1ccncc1,11
5,COc1cccc(C(=O)N[C@H](Cc2ccccc2)c2[nH]nc(-c3ccc(F)cc3)c2-c2ccncc2)c1,38
6,COc1ccc(OC)c(S(=O)(=O)N[C@@H](C)c2[nH]nc(-c3ccc(F)cc3)c2-c2ccncc2)c1,40
7,O=C(NCc1[nH]nc(-c2ccc(F)cc2)c1-c1ccncc1)c1ccccc1Cl,55
8,C[C@H](NS(=O)(=O)c1cc(Cl)cc(Cl)c1)c1[nH]nc(-c2ccc(F)cc2)c1-c1ccncc1,65
9,Cc1cccc(C(=O)N[C@@H](C)c2[nH]nc(-c3ccc(F)cc3)c2-c2ccncc2)c1,29
10,C[C@H](NS(=O)(=O)c1cccc2c(N(C)C)cccc12)c1[nH]nc(-c2ccc(F)cc2)c1-c1ccncc1,68
11,C[C@@H](NS(=O)(=O)c1ccc(Cl)c(Cl)c1)c1[nH]nc(-c2ccc(F)cc2)c1-c1ccncc1,98
12,CCCCOc1ccc(S(=O)(=O)N[C@@H](C)c2[nH]nc(-c3ccc(F)cc3)c2-c2ccncc2)cc1,80
13,Cc1noc(C)c1S(=O)(=O)N[C@@H](C)c1[nH]nc(-c2ccc(F)cc2)c1-c1ccncc1,74
14,O=C(N[C@H](Cc1ccccc1)c1[nH]nc(-c2ccc(F)cc2)c1-c1ccncc1)c1ccccc1C(F)(F)F,25
15,C[C@@H](NS(=O)(=O)c1cccc2nonc12)c1[nH]nc(-c2ccc(F)cc2)c1-c1ccncc1,96
16,COc1ccccc1CCNC(=O)Cn1nc(-c2ccc(F)cc2)c(-c2ccncc2)c1C,36
17,O=C(NCc1[nH]nc(-c2ccc(F)cc2)c1-c1ccncc1)c1cccnc1,16
18,O=C(NCc1[nH]nc(-c2ccc(F)cc2)c1-c1ccncc1)c1ccc(Cl)cc1,19
